Data set [1] can be described thus: Oral tablets followed by neutron irradiation in patient with calcified tumor (Example IX). Type of data set: in vivo, patient (human). The protocol: Tablets are prepared by conventional methods, formulated as follows: […]
Data set [2] can be described thus: Water solubility (remark in synthesis). Type of data set: physicochemical. On the procedure: 1,2-Diphosphono-o-carborane was prepared as follows: To a solution of 5 g o-carborane in dry THF was added dropwise 46.7 ml of a 1.5 N solution of n-butyllithium at 0° C. To the mixture was then quickly added 11 g diethyl chlorophosphite. The solution was refluxed for several hours. The THF was evaporated. The resulting residue contained unreacted o-carborane and 1,2-di(diethyl phosphite) o-carborane. The latter was hydrolized to the corresponding acid in 500 ml 6 N HCl by refluxing during 24 hours, after which the remaining HCl solution was evaporated. […] The water was then evaporated, and the residue mixed with 50 ml 10% hydrogen peroxide. The mixture was carefully refluxed until the reaction was completed. The structure of 1,2-diphosphono-o-carborane was verified by ^31 P and ^11 B NMR.

The nature of data set [3]: Animal skeletal uptake test (99mTc scan). Type of data set: in vivo, Rabbits. To be noted: 99mTc-labelled solution, 1.0 ml injected; scanned at 3 hrs and 21 hrs. On the procedure:
In this test the skeletal uptake of a polyphosphonate compound is established as follows:
A reducing solution is prepared by mixing 5.0 ml of a 0.34 N NTA solution, 1.0 ml of a 0.84 M SnCl2 solution and 3.0 ml H2 O. The pH of the solution is adjusted to 5.6 with 1.0 N NaOH. 100 ul of the reducing solution is added to 1.0 ml of a ^99m TcO4^- solution, containing 19.6 mCi. The reduction of TcO4^- is checked by TLC. 0.9 ml of a 35 mg/ml solution of a boron polyphosphonate is added to the reduced technetiate solution. Rabbits are injected with 1.0 ml each of this solution. The animals are scanned for skeletal uptake at 3 hrs and 21 hrs after injection.

Data set [4] in a line: Crystal Growth Inhibition Test. Particulars: for Lag Time: pH 7.4. The protocol: The test is conducted as follows:
50 ml of a 0.01 M KH2 PO4 stock solution is diluted with 1000 ml N2 purged distilled water. 1 ml of an aqueous solution of the polyphosphonate to be tested (at a concentration to provide the desired ultimate concentration in the reaction mixture) is added to the diluted KH2 PO4 solution and the solution is adjusted to pH 7.4 with potassium hydroxide. To this solution is added 50 ml of a 0.0175 N CaCl2 solution preadjusted to pH 7.4. The KOH consumption is recorded as a function of time. The rate of KOH consumption is directly related to the rate of calcium phosphate formation. In the absence of polyphosphonate the formation of calcium phosphate starts at t=o, i.e. when the solutions of KH2 PO4 and CalCl2 are mixed. Low levels of polyphosphonates are capable of inhibiting the formation of calcium phosphate for 20 minutes or longer. This effect depends on the propensity of the polyphosphonates to adsorb on calcium phosphate crystal nuclei.
1-Methyl, 2-(2,2-ethane diphosphonic acid) o-carborane (MECB) was subjected to the Crystal Growth Inhibition Test.

Data set [5] is described as follows: Oral capsules followed by neutron irradiation in adult with a bone tumor (Example VIII). To be noted: oral capsules (350 mg MECB or replacement) twice daily, ten days; 37 eV neutron beam about 24 hrs after last capsule. It is filed as in vivo, adult (human). On the procedure:
Capsules are prepared by conventional methods, comprised as follows:
To a 76 kg adult with a bone tumor are administered orally twice daily the above capsules for a period of ten days. About 24 hrs after the last capsule is administered, the tumor site is irradiated with a 37 eV neutron beam of 2.4×10^8 neutrons cm^-2 s^-1.

For the compound “1,2-di(2-chloro-2,2-ethane diphosphonic acid)o-carborane [DC1EDP]”, the “deposition of 10B in the calcified tumor tissue” value in data set [1] (oral tablets (25 mg) four times daily) is “significant amounts”. Further, the “levels of localized alpha particles emitted” value in data set [1] (oral tablets four times daily, irradiation by 37 eV neutrons) is listed as “effective levels”.

“1,2-dicarbaclosododeca borane (12) [o-carborane]”: the solubility in water result in data set [2] was “not soluble in water”.

As for “1-Methyl, 2-(2,2-ethane diphosphonic acid) o-carborane [MECB]”, in data set [3], the skeletal affinity result is given as “high skeletal affinity”. Also, the “Lag Time” value in data set [4] (Concentration 1 × 10^-6 Mole) was found to be 25 min; in data set [4] (Concentration 2 × 10^-6 Mole) it was 37 min. Further, the “capability to retard the formation of calcium phosphate” value in data set [4] (compared with Cl2 MDP, Table I) was “the same as that of Cl2 MDP”. For the same compound, in data set [5], the “level of alpha and Li particles generated in the tumor tissue” value is on record as “effective level”.

As for `O=P(O)(O)C(Cl)(Cl)P(=O)(O)O` [Cl2 MDP, dichloromethylene diphosphonate, reference compound], the entries for the “Lag Time” value in data set [4] (Concentration 1 × 10^-6 Mole) and in data set [4] (Concentration 2 × 10^-6 Mole) were 18 min and 41 min, respectively.

In the case of `CC(O)(P(=O)(O)O)P(=O)(O)O` [EHDP, Ethane hydroxy diphosphonate, reference compound], the “Lag Time” value in data set [4] (Concentration 1 × 10^-6 Mole) came out at 82 min.

The values are drawn from patent publication US4399817A, “Boron containing polyphosphonates for the treatment of calcific tumors” (The Procter & Gamble Company, priority 1981, dated 1983).
